Results published in publication PMC9250534, “Synthesis and direct assay of large macrocycle diversities by combinatorial late-stage modification at picomole scale” (Nature Communications, 2022).
Values joined by “and” are separate entries in the source; they are usually repeats but may differ in a detail not shown here. Equal entries are not always repeated. Where two headings read alike, the source gives them in different places. One block for each molecule: values may come before it.

Legend:
MDM2 [1] = molecular target: T1, MDM2 (Homo sapiens, UniProt Q00987); experiment: MDM2 binding (FP53 displacement) by HPLC fractions of resynthesized hit reactions
Description: For hits from the MDM2 screen, reactions were performed in the same way but at a 50 nmol scale, and purified with the same method but a 10–80% gradient of solvent B and over 22 min. Fractions were lyophilized and dissolved in 40 μL of DMSO, 160 μL of water was added, and 5 μL of each fraction was transferred to a 384-well plate (Nunc, 264705), and 15 μL of premixed MDM2/FP53 peptide were added (final concentrations: 1.2 μM MDM2, 50 nM FP53, 5% DMSO).

MDM2 [2] = molecular target: T1, MDM2; experiment: IC50 of purified MDM2-binding macrocycles, fluorescence polarization competition with FP53; conditions: for IC50: HPLC-purified macrocycle, FP displacement of fluorescent reporter peptide; for anisotropy: replicates 1-3
Description: Volumes of 5 μL of purified macrocycles (20 mM in DMSO) were serial diluted two-fold in 100% DMSO in a low dead-volume ECHO source plate. Using acoustic droplet transfer, 150 nL of each dilution was transferred to a 384 well low volume polystyrene plate (Nunc, 264705). […] Fluorescence anisotropy was measured as described above. The percentage of bound inhibitor was calculated using the following equation4 %boundinhibitor=N−X/N−P×100 where N is the average anisotropy of the DMSO controls, X is the anisotropy value obtained for each well, and P is the average anisotropy of the unbound probe. The IC50s were determined by plotting the percent of bound inhibitor against the logarithm of the corresponding macrocycle concentration, and the curves were fitted in GraphPad Prism 6 as described above.

MDM2 [3] = molecular target: T1, MDM2; experiment: MDM2 binding screen of Libraries 3 and 4: displacement of fluorescent probe F-M8 at 750 nM macrocycle; conditions: 750 nM macrocycle; crude reaction; probe F-M8
In short: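 Competition with nutlin-3a was run using the fluorescein conjugate. Library members came from scaffolds reacted 6 h at room temperature with carboxylic acids (20 equiv.), HBTU and DABCO in DMSO. Quenching was overnight in Tris-Cl pH 7.4 buffer with 0.01% Tween20.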

MDM2 [4] = molecular target: T1, MDM2; experiment: Competition binding of M10 and nutlin-3a (F-M10 or FP53 probe displacement from MDM2, FP); conditions: for F-M10 displacement (values are anisotropy): F-M10 macrocycle probe; for F-M10 displacement (values are anisotropy) / FP53 displacement (values are anisotropy): duplicates -1/-2; for FP53 displacement (values are anisotropy): FP53 linear peptide probe
Description: With the fluorescein conjugate, we also performed a competition experiment with nutlin-3a that binds to a defined hydrophobic pocket of MDM2[34] and is a precursor of nutlin-based clinical candidates.
Supplementary Figure 13. Studying the binding site of M10 by competition binding
by fluorescence polarization. The displacement was measured in two independent experiments
The displacement was measured in two

T1 sequence (Q00987 whole entry): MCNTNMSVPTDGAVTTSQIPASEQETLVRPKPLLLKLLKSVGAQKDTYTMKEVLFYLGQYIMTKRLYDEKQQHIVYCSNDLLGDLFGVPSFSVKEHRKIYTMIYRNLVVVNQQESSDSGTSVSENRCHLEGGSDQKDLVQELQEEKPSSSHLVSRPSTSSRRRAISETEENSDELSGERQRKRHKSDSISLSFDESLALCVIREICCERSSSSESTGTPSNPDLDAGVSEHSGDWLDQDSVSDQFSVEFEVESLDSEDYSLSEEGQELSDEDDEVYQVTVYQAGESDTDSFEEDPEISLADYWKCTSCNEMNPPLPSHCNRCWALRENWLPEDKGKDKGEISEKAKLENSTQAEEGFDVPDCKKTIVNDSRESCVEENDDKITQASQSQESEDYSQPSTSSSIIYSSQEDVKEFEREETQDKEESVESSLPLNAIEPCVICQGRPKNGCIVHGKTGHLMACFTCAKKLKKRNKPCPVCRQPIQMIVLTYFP

Fraction bound (fraction fluorescent probe displaced) (MDM2 [1]; HPLC Fraction 1 of acylation reaction): 0.06
Fraction bound (fraction fluorescent probe displaced) (MDM2 [1]; HPLC Fraction 2 of acylation reaction): 0.33
Fraction bound (fraction fluorescent probe displaced) (MDM2 [1]; HPLC Fraction 3 of acylation reaction): 0.08
Fraction bound (fraction fluorescent probe displaced) (MDM2 [1]; HPLC Fraction 4 of acylation reaction): -0.000869
Fraction bound (fraction fluorescent probe displaced) (MDM2 [1]; HPLC Fraction 5 of acylation reaction): -0.0216
Fraction bound (fraction fluorescent probe displaced) (MDM2 [1]; HPLC Fraction 6 of acylation reaction): 0.02
Fraction bound (fraction fluorescent probe displaced) (MDM2 [1]; HPLC Fraction 7 of acylation reaction): 0.02
Fraction bound (fraction fluorescent probe displaced) (MDM2 [1]; HPLC Fraction 8 of acylation reaction): 0.02
Fraction bound (fraction fluorescent probe displaced) (MDM2 [1]; HPLC Fraction 9 of acylation reaction): 0.02
Fraction bound (fraction fluorescent probe displaced) (MDM2 [1]; HPLC Fraction 10 of acylation reaction): 0.08
Fraction bound (fraction fluorescent probe displaced) (MDM2 [1]; HPLC Fraction 11 of acylation reaction): -0.000869
Fraction bound (fraction fluorescent probe displaced) (MDM2 [1]; HPLC Fraction 12 of acylation reaction): -0.06
Fraction bound (fraction fluorescent probe displaced) (MDM2 [1]; HPLC Fraction 13 of acylation reaction): -0.0422
Fraction bound (fraction fluorescent probe displaced) (MDM2 [1]; HPLC Fraction 14 of acylation reaction): 0.29
Fraction bound (fraction fluorescent probe displaced) (MDM2 [1]; HPLC Fraction 15 of acylation reaction): -0.0216
Fraction bound (fraction fluorescent probe displaced) (MDM2 [1]; HPLC Fraction 16 of acylation reaction): -0.10
Fraction bound (fraction fluorescent probe displaced) (MDM2 [1]; HPLC Fraction 17 of acylation reaction): -0.10
Fraction bound (fraction fluorescent probe displaced) (MDM2 [1]; HPLC Fraction 18 of acylation reaction): -0.15
Fraction bound (fraction fluorescent probe displaced) (MDM2 [1]; HPLC Fraction 19 of acylation reaction): -0.25
Fraction bound (fraction fluorescent probe displaced) (MDM2 [1]; HPLC Fraction 20 of acylation reaction): -0.21
IC50 (MDM2 [2]; average of 3 replicates, read-out: IC50 Average): 3.7 µM
IC50 (MDM2 [2]; replicate 1, read-out: IC50 Replicate 1): 3.8 µM
IC50 (MDM2 [2]; replicate 2, read-out: IC50 Replicate 2): 2 µM
IC50 (MDM2 [2]; replicate 3, read-out: IC50 Replicate 3): 5.3 µM
displacement of fluorescent peptide probe from MDM2 (MDM2 [2]; HPLC-purified macrocycles, FP competition): efficiently displaced
anisotropy (MDM2 [2]; Log[Macrocycle] M -4.0): 39 and 34 and 33
anisotropy (MDM2 [2]; Log[Macrocycle] M -4.3): 47 and 37 and 40
anisotropy (MDM2 [2]; Log[Macrocycle] M -4.6): 50 and 42 and 45
anisotropy (MDM2 [2]; Log[Macrocycle] M -4.9): 54 and 48 and 49
anisotropy (MDM2 [2]; Log[Macrocycle] M -5.2): 60 and 47 and 53
anisotropy (MDM2 [2]; Log[Macrocycle] M -5.5): 68 and 53 and 61
anisotropy (MDM2 [2]; Log[Macrocycle] M -5.8): 73 and 55 and 63
anisotropy (MDM2 [2]; Log[Macrocycle] M -6.1): 81 and 61 and 69
anisotropy (MDM2 [2]; Log[Macrocycle] M -6.4): 87 and 68 and 75
anisotropy (MDM2 [2]; Log[Macrocycle] M -6.7): 89 and 72 and 77
anisotropy (MDM2 [2]; Log[Macrocycle] M -7.0): 92 and 75 and 82
anisotropy (MDM2 [2]; Log[Macrocycle] M -7.3): 92 and 72 and 85
anisotropy (MDM2 [2]; Log[Macrocycle] M -7.6): 97 and 81 and 87
anisotropy (MDM2 [2]; Log[Macrocycle] M -7.9): 94 and 83 and 85
anisotropy (MDM2 [2]; Log[Macrocycle] M -8.2): 94 and 79 and 89
anisotropy (MDM2 [2]; Log[Macrocycle] M -8.5): 96 and 78 and 86
Molecule: O=C(NC[C@@H]1NC(=O)[C@H]2CCCN(C2)C(=O)CCSSCCNC(=O)[C@H](Cc2c[nH]c3ccccc23)NC1=O)c1ccc(Cl)cc1 [M7]

displacement of fluorescent probe from MDM2 (MDM2 [3]): 84%
F-M10 displacement (values are anisotropy) (MDM2 [4]; Log[Inhibitor] M -4.0): 23 and 19
F-M10 displacement (values are anisotropy) (MDM2 [4]; Log[Inhibitor] M -4.3): 19 and 11
F-M10 displacement (values are anisotropy) (MDM2 [4]; Log[Inhibitor] M -4.6): 18 and 15
F-M10 displacement (values are anisotropy) (MDM2 [4]; Log[Inhibitor] M -4.9): 18 and 10
F-M10 displacement (values are anisotropy) (MDM2 [4]; Log[Inhibitor] M -5.2): 14 and 12
F-M10 displacement (values are anisotropy) (MDM2 [4]; Log[Inhibitor] M -5.5): 15 and 12
F-M10 displacement (values are anisotropy) (MDM2 [4]; Log[Inhibitor] M -5.8): 18 and 9
F-M10 displacement (values are anisotropy) (MDM2 [4]; Log[Inhibitor] M -6.1): 17 and 10
F-M10 displacement (values are anisotropy) (MDM2 [4]; Log[Inhibitor] M -6.4): 20 and 15
F-M10 displacement (values are anisotropy) (MDM2 [4]; Log[Inhibitor] M -6.7): 24 and 19
F-M10 displacement (values are anisotropy) (MDM2 [4]; Log[Inhibitor] M -7.0): 30 and 21
F-M10 displacement (values are anisotropy) (MDM2 [4]; Log[Inhibitor] M -7.3): 40 and 26
F-M10 displacement (values are anisotropy) (MDM2 [4]; Log[Inhibitor] M -7.6): 46 and 32
F-M10 displacement (values are anisotropy) (MDM2 [4]; Log[Inhibitor] M -7.9): 52 and 42
F-M10 displacement (values are anisotropy) (MDM2 [4]; Log[Inhibitor] M -8.2): 57 and 39
F-M10 displacement (values are anisotropy) (MDM2 [4]; Log[Inhibitor] M -8.5): 57 and 42
FP53 displacement (values are anisotropy) (MDM2 [4]; Log[Inhibitor] M -4.0): 35 and 39
FP53 displacement (values are anisotropy) (MDM2 [4]; Log[Inhibitor] M -4.3): 34 and 40
FP53 displacement (values are anisotropy) (MDM2 [4]; Log[Inhibitor] M -4.6): 35 and 36
FP53 displacement (values are anisotropy) (MDM2 [4]; Log[Inhibitor] M -4.9): 31 and 36
FP53 displacement (values are anisotropy) (MDM2 [4]; Log[Inhibitor] M -5.2): 32 and 39
FP53 displacement (values are anisotropy) (MDM2 [4]; Log[Inhibitor] M -5.5): 31 and 40
FP53 displacement (values are anisotropy) (MDM2 [4]; Log[Inhibitor] M -5.8): 30 and 37
FP53 displacement (values are anisotropy) (MDM2 [4]; Log[Inhibitor] M -6.1): 32 and 36
FP53 displacement (values are anisotropy) (MDM2 [4]; Log[Inhibitor] M -6.4): 31 and 40
FP53 displacement (values are anisotropy) (MDM2 [4]; Log[Inhibitor] M -6.7): 42 and 51
FP53 displacement (values are anisotropy) (MDM2 [4]; Log[Inhibitor] M -7.0): 51 and 55
FP53 displacement (values are anisotropy) (MDM2 [4]; Log[Inhibitor] M -7.3): 54 and 63
FP53 displacement (values are anisotropy) (MDM2 [4]; Log[Inhibitor] M -7.6): 60 and 67
FP53 displacement (values are anisotropy) (MDM2 [4]; Log[Inhibitor] M -7.9): 60 and 65
FP53 displacement (values are anisotropy) (MDM2 [4]; Log[Inhibitor] M -8.2): 66 and 67
FP53 displacement (values are anisotropy) (MDM2 [4]; Log[Inhibitor] M -8.5): 63 and 67
Molecule: O=C(/C=C/c1ccc2c(c1)OCO2)NC[C@@H]1NC(=O)[C@H]2CCCN(C2)C(=O)CCSSCCNC(=O)[C@H](Cc2c[nH]c3ccccc23)NC1=O [M10]

F-M10 displacement (values are anisotropy) (MDM2 [4]; Log[Inhibitor] M -4.0): 71 and 53
F-M10 displacement (values are anisotropy) (MDM2 [4]; Log[Inhibitor] M -4.3): 66 and 52
F-M10 displacement (values are anisotropy) (MDM2 [4]; Log[Inhibitor] M -4.6): 66 and 55
F-M10 displacement (values are anisotropy) (MDM2 [4]; Log[Inhibitor] M -4.9): 62 and 56
F-M10 displacement (values are anisotropy) (MDM2 [4]; Log[Inhibitor] M -5.2): 69 and 55
F-M10 displacement (values are anisotropy) (MDM2 [4]; Log[Inhibitor] M -5.5): 63 and 51
F-M10 displacement (values are anisotropy) (MDM2 [4]; Log[Inhibitor] M -5.8): 63 and 55
F-M10 displacement (values are anisotropy) (MDM2 [4]; Log[Inhibitor] M -6.1): 68 and 53
F-M10 displacement (values are anisotropy) (MDM2 [4]; Log[Inhibitor] M -6.4): 65 and 54
F-M10 displacement (values are anisotropy) (MDM2 [4]; Log[Inhibitor] M -6.7): 64 and 54
F-M10 displacement (values are anisotropy) (MDM2 [4]; Log[Inhibitor] M -7.0): 64 and 51
F-M10 displacement (values are anisotropy) (MDM2 [4]; Log[Inhibitor] M -7.3): 64 and 50
F-M10 displacement (values are anisotropy) (MDM2 [4]; Log[Inhibitor] M -7.6): 67 and 53
F-M10 displacement (values are anisotropy) (MDM2 [4]; Log[Inhibitor] M -7.9): 61 and 50
F-M10 displacement (values are anisotropy) (MDM2 [4]; Log[Inhibitor] M -8.2): 66 and 47
F-M10 displacement (values are anisotropy) (MDM2 [4]; Log[Inhibitor] M -8.5): 66 and 47
FP53 displacement (values are anisotropy) (MDM2 [4]; Log[Inhibitor] M -4.0): 13 and 15
FP53 displacement (values are anisotropy) (MDM2 [4]; Log[Inhibitor] M -4.3): 21 and 16
FP53 displacement (values are anisotropy) (MDM2 [4]; Log[Inhibitor] M -4.6): 13 and 14
FP53 displacement (values are anisotropy) (MDM2 [4]; Log[Inhibitor] M -4.9): 14 and 13
FP53 displacement (values are anisotropy) (MDM2 [4]; Log[Inhibitor] M -5.2): 15 and 11
FP53 displacement (values are anisotropy) (MDM2 [4]; Log[Inhibitor] M -5.5): 15 and 18
FP53 displacement (values are anisotropy) (MDM2 [4]; Log[Inhibitor] M -5.8): 15 and 14
FP53 displacement (values are anisotropy) (MDM2 [4]; Log[Inhibitor] M -6.1): 19 and 23
FP53 displacement (values are anisotropy) (MDM2 [4]; Log[Inhibitor] M -6.4): 30 and 27
FP53 displacement (values are anisotropy) (MDM2 [4]; Log[Inhibitor] M -6.7): 43 and 49
FP53 displacement (values are anisotropy) (MDM2 [4]; Log[Inhibitor] M -7.0): 56 and 61
FP53 displacement (values are anisotropy) (MDM2 [4]; Log[Inhibitor] M -7.3): 64 and 66
FP53 displacement (values are anisotropy) (MDM2 [4]; Log[Inhibitor] M -7.6): 64 and 68
FP53 displacement (values are anisotropy) (MDM2 [4]; Log[Inhibitor] M -7.9): 66 and 67
FP53 displacement (values are anisotropy) (MDM2 [4]; Log[Inhibitor] M -8.2): 65
FP53 displacement (values are anisotropy) (MDM2 [4]; Log[Inhibitor] M -8.5): 69 and 66
Molecule: Nutlin

competition with fluorescein conjugate of M10 for MDM2 binding (MDM2 [4]; FP competition experiment): did not compete
Molecule: nutlin-3a [reference compound]
